Laboratory results published in patent publication US7803930B2, “Antisense modulation of apolipoprotein B-expression” (Isis Pharmaceuticals, Inc., priority 2002, dated 2010).
In the oligonucleotide strings, read from the 5' end, every base follows the letter of its sugar. An asterisk marks phosphorothioate; unmarked linkages are phosphodiester. Other units and linkages are bracketed, terminal groups are in braces. A string of capitals states the bases alone. e = 2'-O-(2-methoxyethyl) (MOE); [5mC] = 5-methylcytosine; d = 2'-deoxy (DNA)

Tested on: human apolipoprotein B mRNA
Assay: Inhibition of human apolipoprotein B mRNA levels in HepG2 cells, quantitative real-time PCR
Format: cell-based
Conditions: averages from two experiments; for % INHIB (inhibition of human apolipoprotein B mRNA levels): HepG2 cells treated with 150 nM of compound, quantitative real-time PCR; for % INHIB: Table 12, HepG2 cells, 150 nM
Protocol: The human hepatoblastoma cell line HepG2 was obtained from the American Type Culture Collection (Manassas, Va.). HepG2 cells were routinely cultured in Eagle's MEM supplemented with 10% fetal calf serum, non-essential amino acids, and 1 mM sodium pyruvate (Gibco/Life Technologies, Gaithersburg, Md.). Cells were routinely passaged by trypsinization and dilution when they reached 90% confluence. Cells were seeded into 96-well plates (Falcon-Primaria #3872) at a density of 7000 cells/well for use in RT-PCR analysis.
When cells reached 80% confluency, they were treated with oligonucleotide. For cells grown in 96-well plates, wells were washed once with 200 μL OPTI-MEM™-1 reduced-serum medium (Gibco BRL) and then treated with 130 μL of OPTI-MEM™-1 containing 3.75 μg/mL LIPOFECTIN™ (Gibco BRL) and the desired concentration of oligonucleotide. After 4-7 hours of treatment, the medium was replaced with fresh medium. Cells were harvested 16-24 hours after oligonucleotide treatment.
Quantitation of apolipoprotein B mRNA levels was determined by real-time quantitative PCR using the ABI PRISM™ 7700 Sequence Detection System (PE-Applied Biosystems, Foster City, Calif.) according to manufacturer's instructions. This is a closed-tube, non-gel-based, fluorescence detection system which allows high-throughput quantitation of polymerase chain reaction (PCR) products in real-time. As opposed to standard PCR, in which amplification products are quantitated after the PCR is completed, products in real-time quantitative PCR are quantitated as they accumulate. This is accomplished by including in the PCR reaction an oligonucleotide probe that anneals specifically between the forward and reverse PCR primers, and contains two fluorescent dyes. A reporter dye (e.g., JOE, FAM, or VIC, obtained from either Operon Technologies Inc., Alameda, Calif. or PE-Applied Biosystems, Foster City, Calif.) is attached to the 5′ end of the probe and a quencher dye (e.g., TAMRA, obtained from either Operon Technologies Inc., Alameda, Calif. or PE-Applied Biosystems, Foster City, Calif.) is attached to the 3′ end of the probe. When the probe and dyes are intact, reporter dye emission is quenched by the proximity of the 3′ quencher dye. During amplification, annealing of the probe to the target sequence creates a substrate that can be cleaved by the 5′-exonuclease activity of Taq polymerase. […] With each cycle, additional reporter dye molecules are cleaved from their respective probes, and the fluorescence intensity is monitored at regular intervals by laser optics built into the ABI PRISM™ 7700 Sequence Detection System. In each assay, a series of parallel reactions containing serial dilutions of mRNA from untreated control samples generates a standard curve that is used to quantitate the percent inhibition after antisense oligonucleotide treatment of test samples.
PCR reagents were obtained from PE-Applied Biosystems, Foster City, Calif. RT-PCR reactions were carried out by adding 25 μL PCR cocktail (1× TAQMAN™ buffer A, 5.5 mM MgCl2, 300 μM each of DATP, dCTP and dGTP, 600 μM of dUTP, 100 nM each of forward primer, reverse primer, and probe, 20 Units RNAse inhibitor, 1.25 Units AMPLITAQ GOLD™, and 12.5 Units MuLV reverse transcriptase) to 96 well plates containing 25 μL total RNA solution. The RT reaction was carried out by incubation for 30 minutes at 48° C. Following a 10 minute incubation at 95° C. to activate the AMPLITAQ GOLD™, 40 cycles of a two-step PCR protocol were carried out: 95° C. for 15 seconds (denaturation) followed by 60° C. for 1.5 minutes (annealing/extension).
Gene target quantities obtained by real time RT-PCR are normalized using either the expression level of GAPDH, a gene whose expression is constant, or by quantifying total RNA using RiboGreen™ (Molecular Probes, Inc. Eugene, Oreg.). GAPDH expression is quantified by real time RT-PCR, by being run simultaneously with the target, multiplexing, or separately. […]

Substance	% INHIB (inhibition of human apolipoprotein B mRNA levels) [%]	% INHIB [%]
271021 (antisense eG*eA*eG*eT*e[5mC]*dT*d[5mC]*dT*dG*dA*dG*dT*d[5mC]*dA*d[5mC]*e[5mC]*eT*e[5mC]*eA*e[5mC]) [compound 271021]	38	–
271022 (antisense eG*eA*eT*eA*eG*dA*dA*dT*dA*dT*dT*dG*d[5mC]*dT*d[5mC]*eT*eG*e[5mC]*eA*eA) [compound 271022]	100	–
271023 (antisense e[5mC]*e[5mC]*e[5mC]*eT*eT*dG*d[5mC]*dT*d[5mC]*dT*dA*d[5mC]*d[5mC]*dA*dA*eT*eG*e[5mC]*eT*eT) [compound 271023]	44	–
271024 (eG*e[5mC]*eT*e[5mC]*eA*d[5mC]*dT*dG*dT*dT*d[5mC]*dA*dG*d[5mC]*dA*eT*e[5mC]*eT*eG*eG; antisense) [compound 271024]	–	27
271025 (eT*e[5mC]*e[5mC]*eA*eT*dT*d[5mC]*d[5mC]*d[5mC]*dT*dA*dT*dG*dT*d[5mC]*eA*eG*e[5mC]*eA*eT; antisense) [compound 271025]	16	–
271026 (eG*eA*e[5mC]*eT*e[5mC]*d[5mC]*dT*dT*d[5mC]*dA*dG*dA*dG*d[5mC]*d[5mC]*eA*eG*e[5mC]*eG*eG; antisense) [compound 271026]	39	–
271027 (e[5mC]*e[5mC]*e[5mC]*eA*eT*dG*d[5mC]*dT*d[5mC]*d[5mC]*dG*dT*dT*d[5mC]*dT*e[5mC]*eA*eG*eG*eT; antisense) [compound 271027]	26	–
271028 (e[5mC]*eG*e[5mC]*eA*eG*dG*dT*d[5mC]*dA*dG*d[5mC]*d[5mC]*dT*dG*dA*e[5mC]*eT*eA*eG*eA; antisense) [compound 271028]	98	–
271030 (e[5mC]*eA*eG*eT*eT*dA*dG*dA*dA*d[5mC]*dA*d[5mC]*dT*dG*dT*eG*eG*e[5mC]*e[5mC]*e[5mC]; antisense) [compound 271030]	52	–
271031 (e[5mC]*eA*eG*eT*eG*dT*dG*dA*dT*dG*dA*d[5mC]*dA*d[5mC]*dT*eT*eG*eA*eT*eT; antisense) [compound 271031]	49	–
271032 (e[5mC]*eT*eG*eT*eG*dG*d[5mC]*dT*dA*dA*d[5mC]*dT*dT*d[5mC]*dA*eA*eT*e[5mC]*e[5mC]*e[5mC]; antisense) [compound 271032]	22	–
271033 (e[5mC]*eA*eG*eT*eA*d[5mC]*dT*dG*dT*dT*dA*dT*dG*dA*d[5mC]*eT*eA*e[5mC]*e[5mC]*e[5mC]; antisense) [compound 271033]	34	–
271034 (e[5mC]*eA*e[5mC]*eT*eG*dA*dA*dG*dA*d[5mC]*d[5mC]*dG*dT*dG*dT*eG*e[5mC]*eT*e[5mC]*eT; antisense) [compound 271034]	35	–
271035 (eT*e[5mC]*eG*eT*eA*d[5mC]*dT*dG*dT*dG*d[5mC]*dT*d[5mC]*d[5mC]*d[5mC]*eA*eG*eA*eG*eG; antisense) [compound 271035]	23	–
271036 (eA*eA*eG*eA*eG*dG*d[5mC]*d[5mC]*d[5mC]*dT*d[5mC]*dT*dA*dG*d[5mC]*eT*eG*eT*eA*eA; antisense) [compound 271036]	95	–
271037 (eA*eA*eG*eA*e[5mC]*d[5mC]*d[5mC]*dA*dG*dA*dA*dT*dG*dA*dA*eT*e[5mC]*e[5mC]*eG*eG; antisense) [compound 271037]	23	–
271038 (eG*eT*e[5mC]*eT*eA*d[5mC]*d[5mC]*dT*d[5mC]*dA*dA*dA*dG*d[5mC]*dG*eT*eG*e[5mC]*eA*eG; antisense) [compound 271038]	29	–

Substance	% INHIB (inhibition of human apolipoprotein B mRNA levels) [%]	% INHIB [%]
271039 (eT*eA*eG*eA*eG*dG*d[5mC]*dT*dA*dA*d[5mC]*dG*dT*dA*d[5mC]*e[5mC]*eA*eT*e[5mC]*eT; antisense) [compound 271039]	4	–
271040 (eG*eT*e[5mC]*e[5mC]*eT*dT*d[5mC]*dA*dT*dA*dT*dT*dT*dG*d[5mC]*e[5mC]*eA*eT*e[5mC]*eT; antisense) [compound 271040]	–	0
271041 (e[5mC]*e[5mC]*eA*eT*eA*dT*d[5mC]*d[5mC]*dA*dT*dG*d[5mC]*d[5mC]*d[5mC]*dA*e[5mC]*eG*eG*eT*eG; antisense) [compound 271041]	37	–
271042 (eA*eG*eT*eT*eT*d[5mC]*d[5mC]*dT*d[5mC]*dA*dT*d[5mC]*dA*dG*dA*eT*eT*e[5mC]*e[5mC]*e[5mC]; antisense) [compound 271042]	57	–
271043 (e[5mC]*e[5mC]*e[5mC]*eA*eG*dT*dG*dG*dT*dA*d[5mC]*dT*dT*dG*dT*eT*eG*eA*e[5mC]*eA; antisense) [compound 271043]	68	–
271044 (e[5mC]*e[5mC]*e[5mC]*eA*eG*dT*dG*dG*dT*dG*d[5mC]*d[5mC]*dA*d[5mC]*dT*eG*eG*e[5mC]*eT*eG; antisense) [compound 271044]	22	–
271045 (eG*eT*e[5mC]*eA*eA*d[5mC]*dA*dG*dT*dT*d[5mC]*d[5mC]*dT*dG*dG*eT*eA*e[5mC]*eA*eG; antisense) [compound 271045]	19	–
271046 (e[5mC]*e[5mC]*e[5mC]*eT*eA*dG*dT*dG*dT*dA*dT*dA*dT*d[5mC]*d[5mC]*e[5mC]*eA*eG*eG*eT; antisense) [compound 271046]	61	–
271047 (e[5mC]*e[5mC]*eT*e[5mC]*e[5mC]*d[5mC]*dT*d[5mC]*dA*dT*dG*dA*dA*d[5mC]*dA*eT*eA*eG*eT*eG; antisense) [compound 271047]	–	32
271048 (e[5mC]*eT*eG*eA*eA*dG*dA*dT*dT*dA*d[5mC]*dG*dT*dA*dG*e[5mC]*eA*e[5mC]*e[5mC]*eT; antisense) [compound 271048]	7	–
271049 (eG*eT*e[5mC]*e[5mC]*eA*dG*d[5mC]*d[5mC]*dA*dA*d[5mC]*dT*dA*dT*dA*e[5mC]*eT*eT*eG*eG; antisense) [compound 271049]	54	–
271050 (e[5mC]*e[5mC]*eT*eG*eG*dA*dG*d[5mC]*dA*dA*dG*d[5mC]*dT*dT*d[5mC]*eA*eT*eG*eT*eA; antisense) [compound 271050]	42	–
281586 (eT*eG*eG*eA*e[5mC]*dA*dG*dA*d[5mC]*d[5mC]*dA*dG*dG*d[5mC]*dT*eG*eA*e[5mC]*eA*eT; antisense) [compound 281586]	80	–
281587 (eA*eT*eG*eT*eG*dT*dA*d[5mC]*dT*dT*d[5mC]*d[5mC]*dG*dG*dA*eG*eG*eT*eG*e[5mC]; antisense) [compound 281587]	77	–
281588 (eT*e[5mC]*eT*eT*e[5mC]*dA*dG*dG*dA*dT*dG*dA*dA*dG*d[5mC]*eT*eG*e[5mC]*eA*eG; antisense) [compound 281588]	80	–
281589 (eT*e[5mC]*eA*eG*e[5mC]*dA*dA*dG*dG*d[5mC]*dT*dT*dT*dG*d[5mC]*e[5mC]*e[5mC]*eT*e[5mC]*eA; antisense) [compound 281589]	90	–
